The text below walks through data of patent publication US8138189B2, “Substituted benzene compounds as modulators of the glucocorticoid receptor” (Hoffman-La Roche Inc., priority 2009, dated 2012).

Data set [1] deals with T1, full length human recombinant glucocorticoid receptor (Homo sapiens, UniProt P04150).
T1 construct: partially purified full length human recombinant glucocorticoid receptor; purchased Panvera/Invitrogen PV4302
T1 sequence (P04150 1-777): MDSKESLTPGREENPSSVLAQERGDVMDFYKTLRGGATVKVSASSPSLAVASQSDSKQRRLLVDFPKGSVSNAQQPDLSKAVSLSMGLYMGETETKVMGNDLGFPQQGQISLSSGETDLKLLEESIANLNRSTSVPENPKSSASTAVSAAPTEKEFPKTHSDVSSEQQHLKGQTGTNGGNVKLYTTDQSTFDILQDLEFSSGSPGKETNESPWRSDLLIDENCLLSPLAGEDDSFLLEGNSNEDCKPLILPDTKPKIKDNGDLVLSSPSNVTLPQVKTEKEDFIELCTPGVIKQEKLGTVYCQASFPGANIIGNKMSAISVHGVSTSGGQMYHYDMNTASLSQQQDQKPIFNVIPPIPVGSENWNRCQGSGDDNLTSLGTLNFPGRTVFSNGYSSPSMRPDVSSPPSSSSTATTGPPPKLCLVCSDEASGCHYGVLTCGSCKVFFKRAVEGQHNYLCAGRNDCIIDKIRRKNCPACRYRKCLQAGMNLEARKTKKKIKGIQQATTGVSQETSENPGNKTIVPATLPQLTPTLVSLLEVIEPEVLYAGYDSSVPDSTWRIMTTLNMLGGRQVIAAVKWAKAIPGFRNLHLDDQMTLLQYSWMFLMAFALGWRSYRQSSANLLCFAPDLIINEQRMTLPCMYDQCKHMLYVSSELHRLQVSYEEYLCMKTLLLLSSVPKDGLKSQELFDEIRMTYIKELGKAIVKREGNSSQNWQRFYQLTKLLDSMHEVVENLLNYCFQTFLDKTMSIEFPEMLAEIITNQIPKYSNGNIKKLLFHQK
The data set is described as follows: Glucocorticoid Receptor Binding Assay (fluorescence polarization competitor assay, Fluormone GS Far Red tracer). In short, it runs like this: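 Serially diluted compounds competed with the tight-binding far-red fluorescent ligand for recombinant full-length human glucocorticoid receptor plus GR-stabilizing peptide (screening buffer pH 7.4; 3 h, 22 °C, dark). Polarization (610-660 nm) gave IC50 via sigmoidal dose-response fits, and Ki was derived by Cheng-Prusoff from tracer concentration and Kd.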
Background: Polarisation of emitted light reports the rotation of a fluorescent probe.

In another data set the test system is normal volunteers. The settings on record: acute; cited from earlier work.
A further data set deals with db/db mice. As to conditions: cited from earlier work.
Another data set has as its system Cushing's patients. As to conditions: chronic; cited from earlier work.
A further data set has as its system ob/ob mice. The settings on record: cited from earlier work.
The test system of data set [2] is Hypothalamus-Pituitary gland-Adrenal gland (HPA) axis. As to conditions: cited from earlier work.

In the case of `Cc1cc([C@](O)([C@H](C)c2ccc(Oc3ccc(C(=O)O)cn3)cc2Cl)C(F)(F)F)cn(C)c1=O` [Example 247, 6-{3-Chloro-4-[(1R,2R)-2-(1,5-dimethyl-6-oxo-1,6-dihydro-pyridin-3-yl)-3,3,3-trifluoro-2-hydroxy-1-methyl-propyl]-phenoxy}-nicotinic acid], in data set [1], the Ki was 14.8 nM.

Regarding `Cc1cc([C@@](O)([C@@H](C)c2ccc(Oc3ccc(C(=O)O)c(F)c3)cc2Cl)C(F)(F)F)cn(C)c1=O` [Example 248, 4-{3-Chloro-4-[(1S,2S)-2-(1,5-dimethyl-6-oxo-1,6-dihydro-pyridin-3-yl)-3,3,3-trifluoro-2-hydroxy-1-methyl-propyl]-phenoxy}-2-fluoro-benzoic acid], the Ki in data set [1] was 0.5 nM.

With `Cc1cc([C@](O)([C@H](C)c2ccc(Oc3ccc(C(=O)O)c(F)c3)cc2Cl)C(F)(F)F)cn(C)c1=O` [Example 249, 4-{3-Chloro-4-[(1R,2R)-2-(1,5-dimethyl-6-oxo-1,6-dihydro-pyridin-3-yl)-3,3,3-trifluoro-2-hydroxy-1-methyl-propyl]-phenoxy}-2-fluoro-benzoic acid], the Ki in data set [1] stood at 4.2 nM.

`CC#C[C@]1(O)CC[C@H]2[C@@H]3CCC4=CC(=O)CCC4=C3[C@@H](c3ccc(N(C)C)cc3)C[C@@]21C` [RU486/mifepristone, mifepristone]: the fasting plasma glucose result with normal volunteers is “decrease of fasting plasma glucose”; with ob/ob mice it was “normalizes fasting plasma glucose”. Moreover, in the data set with db/db mice, the “activity of gluconeogenic enzymes” value was “normalizes”. Moreover, in the data set on Cushing's patients, the “plasmatic HbA1c” value is listed as “decrease of plasmatic HbA1c”. Besides, in data set [2] (feed-back mechanism), the “effect on HPA axis / endogenous corticosteroids circulating in the blood” value is “increase of endogenous corticosteroids circulating in the blood”. In addition, the adrenal insufficiency symptoms entry in data set [2] (long term treatment (up to 1 year)) is “induces some adrenal insufficiency symptoms”.

For orientation: Ki means the equilibrium dissociation constant of an inhibitor or competing ligand from its target.
